Data published in patent publication US20240409519A1, “HYDROGENATED QUINOXALINES” (OTSUKA PHARMACEUTICAL CO., LTD., priority 2021, published 2024).

Legend:
Format in all cases: in vitro ADME
[1] = target: T1, CYP2C9 (Homo sapiens, UniProt P11712); assay: CYP inhibition test (2): 50% inhibitory concentration from 3 concentrations, CYP2C9; conditions: human liver microsome, diclofenac substrate, 0.01, 0.03 and 0.1 mmol/L, read-out: 50% inhibitory concentration, 2C9
T1 construct: a human liver microsome solution containing three CYP-specific substrates; from tissue; host or cells: human liver microsomes
T1 sequence (P11712 whole entry): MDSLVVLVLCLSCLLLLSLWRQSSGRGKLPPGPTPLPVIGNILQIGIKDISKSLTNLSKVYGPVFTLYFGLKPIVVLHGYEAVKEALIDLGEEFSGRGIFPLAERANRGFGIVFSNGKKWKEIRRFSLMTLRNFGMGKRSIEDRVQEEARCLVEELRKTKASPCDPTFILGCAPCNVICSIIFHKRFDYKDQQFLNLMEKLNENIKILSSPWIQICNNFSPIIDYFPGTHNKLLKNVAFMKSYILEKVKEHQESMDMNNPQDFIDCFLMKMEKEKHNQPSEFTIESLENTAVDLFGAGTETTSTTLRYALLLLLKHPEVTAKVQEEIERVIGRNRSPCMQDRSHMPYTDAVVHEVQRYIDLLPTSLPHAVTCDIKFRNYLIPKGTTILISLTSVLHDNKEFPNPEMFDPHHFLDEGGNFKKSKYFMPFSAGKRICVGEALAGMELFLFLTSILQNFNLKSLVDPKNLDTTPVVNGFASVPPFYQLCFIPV
Description: (§1) A metabolic reaction was initiated by adding and mixing a test compound solution (final concentration 0.01, 0.03 and 0.1 mmol/L) and a NADH/NADPH solution (final concentration 1 mmol/L) to a human liver microsome solution containing three CYP-specific substrates (final concentration 100 mmol/L potassium phosphate buffer solution (pH 7.4), 5 mmol/L magnesium chloride, 0.1 mg/mL human liver microsome, 0.005 mmol/L diclofenac (for CYP2C9), 0.01 mmol/L bufuralol (for CYP2D6), 0.005 mmol/L midazolam (for CYP3A4)). As an internal standard solution, a solution of each of stable isotopes of the metabolites (50 ng/mL [13C6] hydroxy diclofenac, 5 ng/mL [2H9] hydroxy bufuralol, and 5 ng/mL [13C6] hydroxy midazolam (all stable isotopes)) in methanol was prepared and used as a quenching solution. Specifically, a metabolic reaction was initiated by adding and mixing 2 μL of a solution of a test compound in acetonitrile (or acetonitrile as a control) to 178 μL of a human liver microsome solution in ice water, followed by preincubation at 37° C. for 1 minute, and then adding 20 μL of a NADH/NADPH solution thereto. After incubation at 37° C. for 10 minutes, 50 μL of the reaction mixture was taken, and then it was added and mixed to 500 μL of a quenching solution to quech the reaction. The mixture was centrifuged (6130 g, 4° C., 10 minutes) and the supernatant was used as a sample for LC-MS/MS. Peak area ratio ([peak area of metabolite]/[peak area of corresponding stable isotope]) was calculated for a metabolite and a stable isotope of the metabolite as measurement object. By comparing the peak area ratio of each test compound solution with that of the control, the inhibition rate (%) of each CYP species for each test compound was calculated from (1−[peak area ratio of each test compound solution]/[peak area ratio of control])×100.

[2] = target: T2, CYP3A4 (Homo sapiens, UniProt P08684); assay: CYP inhibition test (2): 50% inhibitory concentration from 3 concentrations, CYP3A4; conditions: human liver microsome, midazolam substrate, 0.01, 0.03 and 0.1 mmol/L; read-out: 50% inhibitory concentration, 3A4
T2 construct: a human liver microsome solution containing three CYP-specific substrates; from tissue; host or cells: human liver microsomes
T2 sequence (P08684 whole entry): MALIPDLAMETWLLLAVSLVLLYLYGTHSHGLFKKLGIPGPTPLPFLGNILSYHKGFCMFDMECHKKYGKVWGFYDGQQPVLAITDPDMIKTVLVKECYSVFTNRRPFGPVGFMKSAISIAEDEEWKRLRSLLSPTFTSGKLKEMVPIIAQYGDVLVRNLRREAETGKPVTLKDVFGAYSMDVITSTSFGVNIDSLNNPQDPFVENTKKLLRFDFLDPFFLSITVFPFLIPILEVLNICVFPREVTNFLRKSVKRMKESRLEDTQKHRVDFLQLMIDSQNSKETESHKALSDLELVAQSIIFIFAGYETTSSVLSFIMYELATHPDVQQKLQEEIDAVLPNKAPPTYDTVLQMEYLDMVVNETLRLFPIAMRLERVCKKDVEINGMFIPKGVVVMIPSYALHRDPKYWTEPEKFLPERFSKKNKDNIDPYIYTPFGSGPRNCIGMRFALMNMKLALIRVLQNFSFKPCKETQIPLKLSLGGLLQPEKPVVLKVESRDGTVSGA
Description: as §1

[3] = target: T3, CYP2D6 (Homo sapiens, UniProt P10635); assay: CYP inhibition test (2): 50% inhibitory concentration from 3 concentrations, CYP2D6; conditions: human liver microsome, bufuralol substrate, 0.01, 0.03 and 0.1 mmol/L; read-out: 50% inhibitory concentration, 2D6
T3 construct: a human liver microsome solution containing three CYP-specific substrates; from tissue; host or cells: human liver microsomes
T3 sequence (P10635 whole entry): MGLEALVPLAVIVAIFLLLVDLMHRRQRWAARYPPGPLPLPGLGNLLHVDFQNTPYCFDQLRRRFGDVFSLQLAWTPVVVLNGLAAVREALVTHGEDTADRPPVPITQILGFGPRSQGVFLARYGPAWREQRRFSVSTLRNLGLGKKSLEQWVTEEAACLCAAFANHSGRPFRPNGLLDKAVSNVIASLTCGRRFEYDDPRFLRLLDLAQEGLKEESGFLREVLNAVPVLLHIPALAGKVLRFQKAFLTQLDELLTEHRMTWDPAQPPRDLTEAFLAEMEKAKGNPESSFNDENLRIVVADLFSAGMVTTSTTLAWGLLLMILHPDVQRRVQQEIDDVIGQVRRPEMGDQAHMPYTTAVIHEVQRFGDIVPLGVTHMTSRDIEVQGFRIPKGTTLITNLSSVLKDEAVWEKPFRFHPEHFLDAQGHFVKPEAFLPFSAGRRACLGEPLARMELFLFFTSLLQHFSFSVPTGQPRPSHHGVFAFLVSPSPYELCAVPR
Description: as §1

[4] = Protein binding rate test (human serum, equilibrium dialysis); conditions: test compound 0.001 mmol/L, equilibrium dialysis 37° C. 6 hours
Description: A serum sample was prepared by adding a test compound solution to a human serum (final concentration of the test compound: 0.001 mmol/L). The serum sample and Dulbecco's Phosphate-Buffered Saline (D-PBS(−)) were added to the wells separated by a dialysis membrane to start the reaction. A solution of the internal standard in methanol was prepared and used as a quenching solution.
Specifically, the dialysis membrane (cut-off molecular weight 12000-14000) was pre-conditioned by immersing it in distilled water, followed by 20% ethanol. Then, the membrane was washed with D-PBS(−) and set in an equilibrium dialysis kit. Then, 150 μL of D-PBS(−) was added to one part of each well divided by the dialysis membrane, and 150 μL of serum sample was added to the other part. After sealing all wells and incubation at 37° C. for 6 hours, 30 μL from the serum side and 90 μL from the PBS side of each well were collected and mixed with 90 μL of D-PBS(−) or 30 μL of blank serum and 480 μL of a quenching solution to quench the reaction.
The mixture was centrifuged (6130 g, 4° C., 10 minutes) and the supernatant was used as a sample for LC-MS/MS.
Peak area ratio ([peak area of test compound]/[peak area of internal standard]) was calculated for the test compound and the internal standard. By comparing the peak area ratio of the PBS side for each test compound with that of the serum side, the protein binding rate (%) of each test compound was calculated from (1-[peak area ratio of PBS side]/[peak area ratio of serum side])×100.

Compound | IC50 [1] | IC50 [2] | IC50 [3] | fraction unbound at 6 h, 0.001 mmol/L [4] | IC50 at 10 min ([1]; human liver microsomes, pH 7.4, probe diclofenac (0.005 mmol/L))
COc1cc(N2CC(C)(C)N[C@H]3CCCC[C@@H]32)ccc1OC(F)(F)CO [Example 26] | > 100 µM | > 100 µM | > 100 µM | 0.58 | 
CC1(C)CN(c2ccc(OC(F)(F)CO)cc2)[C@H]2CCCC[C@@H]2N1 [Example 20, 2-(4-((4aS,8aS)-3,3-dimethyloctahydroquinoxalin-1(2H)-yl)phenoxy)-2,2-difluoroethan-1-ol] | > 100 µM | 94.9 µM | > 100 µM | 0.569 | 
CN1[C@H]2CCCC[C@@H]2N(c2ccc(OC(F)(F)CO)cc2)CC1(C)C [Example 37, 2,2-difluoro-2-(4-((4aS,8aS)-3,3,4-trimethyloctahydroquinoxalin-1(2H)-yl)phenoxy)ethan-1-ol] | > 100 µM | 86.7 µM | > 100 µM | 0.529 | 
CC1(C)CN(c2cc(F)c(OCCO)c(F)c2)[C@@H]2CCCC[C@H]2N1 [Example 35] | > 100 µM | > 100 µM | 55.5 µM | 0.776 | 
Cc1cc(N2CC(C)(C)N[C@H]3CCCC[C@@H]32)ccc1OC(F)(F)CO [Example 31] | > 100 µM | 62.5 µM | > 100 µM | 0.497 | 
CC1(C)CN(c2ccc(OCCO)c(Cl)c2)[C@@H]2CCCC[C@H]2N1 [Example 28] | > 100 µM | > 100 µM | > 100 µM | 0.616 | 
CC1(C)CN(c2cc(F)c(OCCO)c(F)c2)[C@H]2CCCC[C@H]2N1 [Example 36] |  | > 100 µM | 87.6 µM | 0.638 | 100 µM
CC1(C)CN(c2cc(F)c(OCCO)c(F)c2)[C@H]2CCCC[C@@H]2N1 [Example 34, 2-(4-((4aS,8aS)-3,3-dimethyloctahydroquinoxalin-1(2H)-yl)-2,6-difluorophenoxy)ethan-1-ol] | > 100 µM | > 100 µM | > 100 µM | 0.796 | 
C[C@@H]1CN(c2cc(F)c(OCCO)c(Cl)c2)[C@H]2CCCC[C@@H]2N1 [Example 17, 2-(2-chloro-6-fluoro-4-((3R,4aS,8aS)-3-methyloctahydroquinoxalin-1(2H)-yl)phenoxy)ethan-1-ol 1/2fumarate] | > 100 µM | > 100 µM | > 100 µM | 0.727 | 
Cc1cc(N2CC(C)(C)N[C@@H]3CCCC[C@H]32)ccc1OC(F)(F)CO [Example 32] | > 100 µM | 62.8 µM | > 100 µM | 0.482 | 
CC1(C)CN(c2ccc(OC(F)(F)CO)cc2)[C@@H]2CCCC[C@H]2N1 [Example 21] | > 100 µM | > 100 µM | > 100 µM | 0.585 | 
CC1(C)CN(c2ccc(OCCO)c(Cl)c2)[C@H]2CCCC[C@@H]2N1 [Example 27, 2-(2-chloro-4-((4aS,8aS)-3,3-dimethyloctahydroquinoxalin-1(2H)-yl)phenoxy)ethan-1-ol] | > 100 µM | > 100 µM | > 100 µM | 0.585 | 
C[C@H]1CN(c2cc(F)c(OCCO)c(Cl)c2)[C@H]2CCCC[C@H]2N1 [Example 18] | > 100 µM | > 100 µM | 59.1 µM | 0.741 | 
